# According to patent US6004967A, “Psoriasis treatment with quinazoline compounds” (priority 1997, dated 1999):
# Where two headings read alike, the source gives them in different places.
# Assays:
# in vivo = details: single dose, IP, BALB/c female mice; for LD50 at 168 h: mouse, in vivo; for LD50 at 168 h / LD10: 7 days; for deaths: at the dose for LD10/LD50
# [1] = tested on: psoriatic human keratinocytes; test: Growth of psoriatic human keratinocytes; assay type: cell-based
# Source text: Cells and Cell Culture. All tumor cell lines were obtained from the American Type Culture Collection (Rockville, Md.), unless otherwise specified. NIH3T3 mouse fibroblasts overexpressing the EGF receptor, IGF-1 receptor, insulin receptor, PDGF-b receptor, or a chimera of the EGF receptor extracellular domain fused to the Her-2 cytoplasmic domain were engineered using retroviral vectors. These cells will be referred to as 3T3-EGFR, 3T3-IGF1R, 3T3-IR, 3T3-PDGF-bR, and 3T3-EGFR/Her-2, respectively. All cell culture media and supplements were purchased from Gibco Life Technologies (Grand Island, N.Y.) unless otherwise specified. […] Cell lines were maintained under standard conditions in culture media recommended by the ATCC, unless otherwise specified. 3T3-EGFR, 3T3-PDGF-bR, and 3T3-EGFR/Her-2 cells were maintained in DMEM containing 10% calf serum (CS) and 2 mM GLN. 3T3-IGF1R and 3T3-IR cells were maintained in DMEM containing 10% FBS and 2 mM GLN. Keratinocytes were obtained from small biopsy specimens of split-thicknessskin from patients with psoriasis and from healthy control donors.
# In vitro functional studies. […] Cell lines examined in receptor phosphorylation ELISA were 3T3-EGFR, 3T3-EGFR/Her-2, 3T3-PDGF-bR, 3T3-IGF1R, and 3T3-IR. For analysis of DNA replication (measured as incorporation of BrdU) and cell cycle progression, 3T3-EGFR and 3T3-PDGF-bR cell lines were used. Cell growth studies were carried out on A431 (EGF-R+), BT474 (Her-2+), and C6 (PDGF-bR+) cell lines.
# [2] = tested on: NIH 3T3 C7 cells engineered to express EGF-R (3T3-EGFR); test: 3T3 cell growth assay, EGF-R C7 cells (3T3-EGFR); assay type: cell-based; details: Mus musculus, NIH3T3, 96 h, read-out: 3T3-EGFR IC50
# Protocol: The efficacy of the above identified compounds in inhibiting or reducing EGF-R stimulated proliferation is measured by the 3T3 cell growth assay. The 3T3 growth assay was carried out as follows:
# EGF-RC7 (NIH 3T3 C7 cells engineered to express EGF-R) and NIH 3T3C7 cells (as the control) were used for this assay. NIH3T3C7 cells were seeded at 2500 cells/well, […] in 10% CS+2 mM Glutamine/DMEM, in a 96 well plate; EGF-RC7 cells were seeded at 6000 cells/well, 100 μl/well in 2% FBS+2 mM Glutamine/DMEM, in a 96 well plate. Cells were incubated at 37° C., 5% CO2 overnight to allow for cell attachment to the plate.
# A quinazoline compound was added to the cells at day 2. The compound was prepared in the appropriate growth medium (10% CS+2 mM glutamine in DMEM for NIH3T3C7 cells; 2% FBS+2 mM Glutamine in DMEM for EGF-RC7 cells) in a 96 well plate, and serially diluted. A total of 100 μl/well medium of the diluted compounds was added into the cells. The total volume of each well was 200 μl.
# After the cells were treated with the compound for 4 days, the cells were washed with PBS and fixed with 200 μl/well ice-cold […] for one hour at 0-5° C.
# Remove TCA and rinse wells 5 times with deionized water. Dry plates upside down with paper towels. Stain cells with 0.4% SRB at 100 μl/well for 10 minutes.
# Pour off SRB and rinse plate 5 times with 1% acetic acid. Dry plate completely.
# Solubilize the dye with 10 mM Tris-base at 100 μl/well for 10 minutes on a shaker.
# Read the plate at dual wavelengths at 570 nm and 630 nm on Dynatech Elisa plate reader.
# 3T3-PDGFR = test: cell growth assay, PDGFR expressing cells (3T3-PDGFR), selectivity; assay type: cell-based; details: for IC50: 96 h, read-out: 3T3-PDGFR IC50; for PDGFR/EGFR IC50/IC50: ratio 3T3-PDGFR / 3T3-EGFR, 5760 min
# [3] = Plasma concentration after single IP dose; assay type: in vivo; details: mouse, plasma, single dose 50 mg/kg IP, BALB/c nu/nu female mice; for concentration at […]: 15 min; for concentration at 1 h: 60 min
# Protocol: **Single dose (50 mg/kg), IP, in BALB/c, nu/nu, female mice.
# human EGF-R = target: T1, human EGF-R (Homo sapiens, UniProt P00533); test: EGF-R whole cell kinase assay (EGF-R-3T3 ELISA); assay type: cell-based; details: for IC50: whole cell, EGF-stimulated EGF-R phosphorylation, free base, read-out: EGFR Kinase IC50
# T1 construct: expressed in transfected cells; host or cells: NIH3T3 clone C7 (mouse fibroblasts)
# Protocol: The activity of the above identified compounds in inhibiting EGF-stimulatedEGF-R phosphorylation was measured in an ELISA assay.
# EGF-R kinase activity (EGF-R-3T3 assay) in whole cells was measured as described below:
# Coated plates are good for up to 10 days when stored at 4° C.
# On day of use, remove coating buffer and replace with blocking buffer (5% Carnation Instant NonFat Dry Milk in PBS). Incubate the plate, shaking, at room temperature (about 23° C. to 25° C.) for 30 minutes. Just prior to use, remove blocking buffer and wash plate 4 times with TBST buffer.
# EGF-R/C7 cell line was used for this assay.
# Choose dishes having 80-90% confluence for the experiment. Trypsinize cells and stop reaction by adding 10% CS DMEM medium. Suspend cells in DMEM medium (10% calf serum (CS) DMEM medium) and centrifuge once at 1000 rpm, and once at room temperature for 5 minutes.
# Resuspend cells in seeding medium (DMEM, 0.5% bovine serum), and count the cells using trypan blue. Viability above 90% is acceptable. Seed cells in DMEM medium (0.5% bovine serum) at a density of 10,000 cells per well, 100 μl per well, in a 96 well microtiter plate. Incubate seeded cells in 5% CO2 at 37° C. for about 40 hours.
# Check seeded cells for contamination using an inverted microscope. Dilute drug stock (10 mg/ml in DMSO) 1:10 in DMEM medium, then transfer 5 μl to a test well for a final drug dilution of 1:200 and a final DMSO concentration of 1%. Control wells receive DMSO alone. Incubate in 5% CO2 at 37° C. for one hour.
# Control wells receive DMEM alone. Incubate and shake at room temperature for 5 minutes.
# Remove drug, EGF, and DMEM. Wash cells twice with PBS. Transfer HNTG* to cells, 100 μl per well. Place on ice for 5 minutes. Meanwhile, remove blocking buffer from other ELISA plate and wash with TBST as described above.
# With a pipette tip securely fitted to a micropipettor, scrape cells from plate and homogenize cell material by repeatedly aspirating and dispensing the HNTG* lysis buffer. Transfer lysate to a coated, blocked, and washed ELISA plate. Incubate and shake at room temperature for one hour.
# Remove lysate and wash 4 times with TBST. Transfer freshly diluted anti-phosphotyrosine (anti-Ptyr) antibody to ELISA plate at 100 μl per well. Incubate shaking at room temperature for 30 minutes in the presence of the anti-Ptyr antiserum (1:3000 dilution in TBST).
# Remove the anti-Ptyr antibody and wash 4 times with TBST. Transfer the freshly diluted TAGO 30 anti-rabbit IgG antibody (anti-rabbit IgG antibody: 1:3000 dilution in TBST) to the ELISA plate at 100 μl per well. Incubate shaking at room temperature for 30 minutes.
# Remove detection antibody and wash 4 times with TBST. Transfer freshly prepared ABTS/H2 O2 solution to ELISA plate, 100 μl per well. Incubate at room temperature for 20 minutes. ABTS/H2 O2 solution: 1.2 μl 30% H2 O2 in 10 ml ABTS stock.
# Stop reaction by adding 50 μl 5N H2 SO4 (optional), and determine O.D. at 410 nm.
# The maximal phosphotyrosine signal is determined by subtracting the value of the negative controls from the positive controls. The percent inhibition of phosphotyrosine content for extract-containing wells is then calculated after subtraction of the negative controls.
# T1 sequence (P00533 25-1210): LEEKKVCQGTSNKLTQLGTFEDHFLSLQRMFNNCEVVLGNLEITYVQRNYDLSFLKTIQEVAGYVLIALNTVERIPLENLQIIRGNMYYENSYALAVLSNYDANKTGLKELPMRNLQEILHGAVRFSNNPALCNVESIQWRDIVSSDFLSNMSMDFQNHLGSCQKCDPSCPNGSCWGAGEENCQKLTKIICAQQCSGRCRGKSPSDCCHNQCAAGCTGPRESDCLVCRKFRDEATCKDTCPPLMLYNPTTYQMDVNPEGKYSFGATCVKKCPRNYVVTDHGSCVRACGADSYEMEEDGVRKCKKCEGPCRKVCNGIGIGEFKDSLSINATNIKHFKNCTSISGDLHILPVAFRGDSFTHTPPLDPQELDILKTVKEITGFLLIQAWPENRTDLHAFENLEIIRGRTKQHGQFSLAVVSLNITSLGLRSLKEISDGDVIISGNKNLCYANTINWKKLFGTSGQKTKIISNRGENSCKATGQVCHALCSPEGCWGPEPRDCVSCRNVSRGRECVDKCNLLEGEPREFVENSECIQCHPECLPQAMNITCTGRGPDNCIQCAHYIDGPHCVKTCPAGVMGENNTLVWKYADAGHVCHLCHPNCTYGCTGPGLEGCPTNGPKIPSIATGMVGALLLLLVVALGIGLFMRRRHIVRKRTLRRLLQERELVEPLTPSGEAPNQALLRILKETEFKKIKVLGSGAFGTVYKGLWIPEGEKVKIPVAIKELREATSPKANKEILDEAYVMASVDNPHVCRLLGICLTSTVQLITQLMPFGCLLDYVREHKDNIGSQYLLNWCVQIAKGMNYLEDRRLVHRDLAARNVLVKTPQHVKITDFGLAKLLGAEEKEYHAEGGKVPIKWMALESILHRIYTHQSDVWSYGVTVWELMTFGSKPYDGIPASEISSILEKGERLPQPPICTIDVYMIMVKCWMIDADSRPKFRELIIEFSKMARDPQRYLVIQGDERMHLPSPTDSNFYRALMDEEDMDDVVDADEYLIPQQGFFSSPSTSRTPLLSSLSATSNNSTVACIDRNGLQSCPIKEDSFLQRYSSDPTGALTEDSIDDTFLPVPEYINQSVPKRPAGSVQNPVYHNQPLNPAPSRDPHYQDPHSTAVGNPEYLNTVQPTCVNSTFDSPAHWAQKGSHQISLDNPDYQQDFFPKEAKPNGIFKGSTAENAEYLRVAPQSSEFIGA
SMILES,LD40 (in vivo; printed in LD10 and LD50 columns) [mg/kg],inhibition of psoriatic skin cell / keratinocyte proliferation in vitro (in words) [1],"IC50 ([2]; cell growth, 4 days, free base) [nM]","IC50 (3T3-PDGFR; cell growth, 4 days, free base) [nM]",PDGFR/EGFR IC50/IC50 (3T3-PDGFR),concentration at 5 min [3] [ng/mL],concentration at […] [3] [ng/mL],concentration at 1 h [3] [ng/mL],inhibition of EGF-stimulated EGF-R phosphorylation (in words) (human EGF-R),IC50 (human EGF-R) [nM],LD50 at 168 h (in vivo) [mg/kg],LD10 (in vivo) [mg/kg],deaths (in vivo),IC50 [2] [nM],IC50 (3T3-PDGFR) [nM]
"COc1cc2ncnc(Nc3cccc(C(F)(F)F)c3)c2cc1OC [A4, 4-[3-(trifluoromethyl)phenylamino]-6,7-dimethoxyquinazoline]",400,capable of inhibiting,400,28000,70,13300 ± 1500,12700 ± 3000,3900,able to inhibit,< 6,,,,,
"COc1cc2ncnc(Nc3cccc(Cl)c3)c2cc1OC [A2, 4-(3-Chlorophenylamino)-6,7-dimethoxyquinazoline]",,capable of inhibiting,,,,11500 ± 4000,6500 ± 1300,3700 ± 500,able to inhibit,,> 200,> 200,no,110,18000
"COc1cc2ncnc(Nc3cccc(C#N)c3)c2cc1OC [A5, 4-(3-Cyanophenylamino)-6,7-dimethoxyquinazoline]",,capable of inhibiting,1500,> 100000,67,950 ± 420,650 ± 190,130 ± 60,able to inhibit,200,> 153,> 153,no,,
"Cc1ccc2ncnc(Nc3cccc(C(F)(F)F)c3)c2c1 [A6, 4-[3-(trifluoromethyl)phenylamino]-6-methylquinazoline]",,capable of inhibiting,6000,30000,5,4450 ± 1380,2010 ± 530,540 ± 200,able to inhibit,900,> 400,> 400,no,,
"Cc1ccc2ncnc(Nc3cccc(Cl)c3)c2c1 [A3, 4-(3-Chlorophenylamino)-6-methylquinazoline]",,capable of inhibiting,2000,10000,5,7870 ± 980,3430 ± 820,1340 ± 110,able to inhibit,58,> 400,,,,
